Source: patent US20040043055A1 (AJINOMOTO CO. INC., priority 2002, published 2004)

Experiments:
[1] = Example 1: body weight of mice on high fat diet containing L-glutamine, with or without treadmill exercise; type: in vivo, C57BL/6J mice
Protocol: (§1) Fifty male C57BL/6J mice, 9 weeks old, were used herein. […] The experiment was conducted for 16 weeks. The mice exercised on a treadmill at moderate intensity (at 4.0 m/min) for 30 minutes a day, 5 days a week. It is known that oxygen consumption (VO2) strongly correlates with exercise intensity. However, VO2 reaches the plateau at a certain point as exercise intensity increases, which is defined as maximum oxygen consumption (VO2max). Percentage of maximum oxygen consumption (% VO2max) is one of the common ways to indicate the exercise intensity. According to Schefer V. and Talan M. I. (Exp. Gerontol. 31:387 (1996)), a running speed of 3-4 m/min which was the same intensity of exercise used herein produced a VO2 equivalent to 54-58% of the VO2max in adult C57BL/6J mice. In 16 weeks of the experiment, plasma and liver samples were obtained after overnight starvation.
Relative body weight to the LF group in week 5, 10, and 16 are shown in FIGS. 1, 2, and 3, respectively.
Applying to a human, assuming a life span of 70 years, 10 weeks and 4 months for mice correspond to 7 and 12 years for a human, respectively.

[2] = Example 1: fasting plasma insulin concentration in week 16; type: in vivo, C57BL/6J mice; details: FIG. 4
Protocol: as §1

[3] = Example 1: liver glycogen content after starvation in week 16; type: in vivo, C57BL/6J mice; details: 24 h starvation, L-glutamine plus exercise, FIG. 5
Protocol: The results of glycogen contents in the liver after starvation were the same trends as plasma insulin concentrations (FIG. 5).
as §1

[4] = Example 2: body weight, epididymal fat and abdominal fats after 6 weeks of high fat diet containing L-glutamine; type: in vivo, C57BL/6J mice; details: high fat diet containing 3.6% or 6.0% of L-glutamine
Protocol: Forty of male C57BL/6J mice, age 5 weeks, were used herein. […] After 6 weeks of the diet feedings, body weight and epididymal fat weight were measured.

[5] = Solubility limit of L-glutamine in liquid product; type: physicochemical

NC(=O)CC[C@H](N)C(=O)O [L-glutamine]
body weight gain by high fat feeding ([1]; week 5, exercise groups, 6.0% L-glutamine plus exercise (6Q+EX) vs HF+EX, FIG. 1): prevented considerably
rate of body weight gain ([1]; week 5, non-exercise groups, high fat diet containing 6.0% of L-glutamine (6Q) vs HF, FIG. 1): did not reduce the rate of body weight gain
synergistic effect of L-glutamine and exercise on body weight gain ([1]; week 10, 6Q+EX, FIG. 2): synergistic effect lasted for 10 weeks
combined effects on body weight ([1]; week 16, 6Q+EX compared to HF+EX, FIG. 3): combined effects disappeared in week 16, although lower body weight was still observed
plasma insulin concentrations ([2]; L-glutamine administration alone, high fat feeding): reduced plasma insulin concentrations
plasma insulin concentrations ([2]; combination of L-glutamine administration and exercise): the lowest and was close to that of LF group
remaining glycogen content in the liver after starvation [3]: the lowest
weights of abdominal fats [4]: decreased in a dose-dependent manner
weights of epididymal fat ([4]; FIG. 7): decreased in a dose-dependent manner
rates of body weight gain ([4]; no exercise, FIG. 6): reduced by L-glutamine administrations in a dose-dependent manner
solubility limit ([5]; 0° C.): 8.3 g per 473 milliliters
solubility limit ([5]; 18° C.): 12.3 g per 473 milliliters
solubility limit ([5]; 30° C.): 22.7 g per 473 milliliters
